As a reminder, the AC50 is the concentration at which the activity in the assay is half-maximal. The term IC50 denotes the concentration that inhibits the measured activity by half. What is called CC50 is the concentration at which the toxic effect on the cells reaches its halfway point.

Drawing on ChEMBL document CHEMBL1201862, “PubChem BioAssay data set” (2004), this text covers AC50, IC50 and CC50 for eleven compounds.

Calls of active or inactive are those of the source. Where only a bound is given, the exact number is not on record here.

A short description of experiment [1]: Shn3 3'UTR reporter inhibitors, dose response, cell-based, Clone20 osteoblasts, firefly luciferase, cherry-picked (AID 624132).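 Further: firefly luciferase luminescence from reporter carrying the Shn3 3'UTR in osteoblasts.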 The class given is functional.
A short description of experiment [2]: HepG2 cell cytotoxicity, dose response, cytotoxicity control for Shn3 inhibitor project, CellTiter-Glo, cherry-picked (AID 624134). In kind it is functional, cell-based. On the technique in general: Cellular ATP, detected with luciferase, serves as a proxy for viable cell number.
Experiment [3] in a line: control 3'UTR Renilla luciferase suppression, dose response, counter-screen for Shn3 inhibitor project, cell-based, Clone20-Shn3RL, cherry-picked (AID 624133). In kind it is functional. In general terms: Counterscreens check selectivity or assay interference.
Another experiment has as its target T1, Caspase-3 (Homo sapiens, UniProt P42574).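 Further: Dose-response selectivity test against caspase-3 for candidate inhibitors of sentrin-specific proteases (SENPs).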
T1 sequence (P42574 whole entry): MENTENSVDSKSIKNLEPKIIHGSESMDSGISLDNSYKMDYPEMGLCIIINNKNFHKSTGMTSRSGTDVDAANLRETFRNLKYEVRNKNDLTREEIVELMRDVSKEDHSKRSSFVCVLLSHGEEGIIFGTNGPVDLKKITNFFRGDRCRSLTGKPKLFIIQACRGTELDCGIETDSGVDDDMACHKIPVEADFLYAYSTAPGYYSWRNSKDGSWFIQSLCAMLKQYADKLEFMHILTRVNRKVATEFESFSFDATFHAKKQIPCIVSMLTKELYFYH
In kind it is functional.

The target of experiment [4] is T2, Sentrin-specific protease 7 (Homo sapiens, UniProt Q9BQF6).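 Further: Luminescence-based dose-response confirmation of ultra-high-throughput screening hits, measuring inhibition of SENP7.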
T2 sequence (Q9BQF6 whole entry): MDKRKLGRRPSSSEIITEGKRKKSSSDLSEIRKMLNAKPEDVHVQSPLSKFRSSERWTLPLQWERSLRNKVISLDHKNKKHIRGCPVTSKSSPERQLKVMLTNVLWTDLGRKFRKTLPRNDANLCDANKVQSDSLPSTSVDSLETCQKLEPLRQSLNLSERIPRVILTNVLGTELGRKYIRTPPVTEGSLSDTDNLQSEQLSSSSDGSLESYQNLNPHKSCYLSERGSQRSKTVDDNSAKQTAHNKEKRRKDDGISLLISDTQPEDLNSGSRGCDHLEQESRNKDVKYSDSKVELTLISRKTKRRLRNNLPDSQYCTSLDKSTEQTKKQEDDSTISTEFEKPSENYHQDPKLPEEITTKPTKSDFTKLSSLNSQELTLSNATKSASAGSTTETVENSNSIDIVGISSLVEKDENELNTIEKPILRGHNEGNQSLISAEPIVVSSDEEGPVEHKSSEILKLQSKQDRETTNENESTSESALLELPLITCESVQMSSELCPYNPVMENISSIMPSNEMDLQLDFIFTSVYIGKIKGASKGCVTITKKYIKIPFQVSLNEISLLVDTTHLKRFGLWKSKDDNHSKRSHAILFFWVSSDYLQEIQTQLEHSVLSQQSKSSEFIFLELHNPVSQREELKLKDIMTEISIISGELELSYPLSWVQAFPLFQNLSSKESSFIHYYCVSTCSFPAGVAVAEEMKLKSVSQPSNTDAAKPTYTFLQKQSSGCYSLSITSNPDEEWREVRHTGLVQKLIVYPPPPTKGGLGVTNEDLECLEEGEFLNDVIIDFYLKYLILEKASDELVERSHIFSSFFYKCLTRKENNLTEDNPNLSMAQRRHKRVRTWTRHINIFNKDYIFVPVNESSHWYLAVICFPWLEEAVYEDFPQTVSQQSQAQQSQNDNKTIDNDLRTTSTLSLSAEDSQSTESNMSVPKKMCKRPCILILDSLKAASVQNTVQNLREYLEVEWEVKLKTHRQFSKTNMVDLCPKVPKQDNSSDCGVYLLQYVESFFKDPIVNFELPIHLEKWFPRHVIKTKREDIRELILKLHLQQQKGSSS
In kind it is functional.

In experiment [5] the target is T3, Sentrin-specific protease 6 (Homo sapiens, UniProt Q9GZR1).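 Further: Luminescence-based dose-response confirmatory assay of SENP6 inhibition, following up an ultra-high-throughput screen.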
T3 sequence (Q9GZR1 whole entry): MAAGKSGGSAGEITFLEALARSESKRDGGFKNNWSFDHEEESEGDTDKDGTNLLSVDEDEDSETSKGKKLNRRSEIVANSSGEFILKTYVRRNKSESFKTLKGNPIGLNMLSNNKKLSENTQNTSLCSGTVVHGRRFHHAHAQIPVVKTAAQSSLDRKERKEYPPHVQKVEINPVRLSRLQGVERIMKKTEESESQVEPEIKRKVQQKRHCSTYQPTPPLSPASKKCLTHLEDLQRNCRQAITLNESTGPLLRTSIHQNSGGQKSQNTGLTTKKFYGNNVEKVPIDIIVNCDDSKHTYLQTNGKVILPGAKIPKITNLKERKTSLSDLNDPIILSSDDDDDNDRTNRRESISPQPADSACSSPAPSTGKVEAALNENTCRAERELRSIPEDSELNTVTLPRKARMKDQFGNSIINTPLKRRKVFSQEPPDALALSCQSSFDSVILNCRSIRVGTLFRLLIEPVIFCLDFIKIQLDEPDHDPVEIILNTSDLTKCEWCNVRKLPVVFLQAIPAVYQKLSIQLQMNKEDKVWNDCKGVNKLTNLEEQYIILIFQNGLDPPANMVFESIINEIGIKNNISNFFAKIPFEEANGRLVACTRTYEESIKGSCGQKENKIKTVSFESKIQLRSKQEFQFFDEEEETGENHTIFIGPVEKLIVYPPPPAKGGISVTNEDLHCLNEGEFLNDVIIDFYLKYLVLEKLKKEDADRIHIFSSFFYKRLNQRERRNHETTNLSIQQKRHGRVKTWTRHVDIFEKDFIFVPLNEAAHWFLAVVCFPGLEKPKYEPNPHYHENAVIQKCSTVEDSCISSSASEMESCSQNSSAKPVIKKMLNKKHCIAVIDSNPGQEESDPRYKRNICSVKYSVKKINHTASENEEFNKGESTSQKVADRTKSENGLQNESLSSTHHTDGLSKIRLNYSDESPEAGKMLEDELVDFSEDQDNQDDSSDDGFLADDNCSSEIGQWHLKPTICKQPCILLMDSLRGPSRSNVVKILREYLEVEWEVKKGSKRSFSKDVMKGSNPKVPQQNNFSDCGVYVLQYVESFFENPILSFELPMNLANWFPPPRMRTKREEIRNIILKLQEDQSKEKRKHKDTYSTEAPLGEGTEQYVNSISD
In kind it is functional.

The target in experiment [6] is T4, Sentrin-specific protease 8 (Homo sapiens, UniProt Q96LD8).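 Further: luminescence read-out of SENP8 inhibition, dose-response confirmation following an ultra-high-throughput screen.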
T4 sequence (Q96LD8 whole entry): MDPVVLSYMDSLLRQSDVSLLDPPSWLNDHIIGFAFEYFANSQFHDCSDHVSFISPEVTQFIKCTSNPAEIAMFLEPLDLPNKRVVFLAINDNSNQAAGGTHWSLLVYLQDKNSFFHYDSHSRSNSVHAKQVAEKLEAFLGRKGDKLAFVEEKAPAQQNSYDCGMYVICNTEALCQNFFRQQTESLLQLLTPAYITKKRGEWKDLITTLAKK
In kind it is functional.

In the next experiment the target is Cytochrome P450 2C19 (Homo sapiens, UniProt P33261). The experiment in a line: Cytochrome panel assay with activity outcomes. Panel member name: p450-cyp2c19 Compounds with AC50 equal or less than 10 uM are considered active. The class given is functional. The settings on record: read-out: AC50.
Cytochrome P450 2C19, sequence (P33261 whole entry): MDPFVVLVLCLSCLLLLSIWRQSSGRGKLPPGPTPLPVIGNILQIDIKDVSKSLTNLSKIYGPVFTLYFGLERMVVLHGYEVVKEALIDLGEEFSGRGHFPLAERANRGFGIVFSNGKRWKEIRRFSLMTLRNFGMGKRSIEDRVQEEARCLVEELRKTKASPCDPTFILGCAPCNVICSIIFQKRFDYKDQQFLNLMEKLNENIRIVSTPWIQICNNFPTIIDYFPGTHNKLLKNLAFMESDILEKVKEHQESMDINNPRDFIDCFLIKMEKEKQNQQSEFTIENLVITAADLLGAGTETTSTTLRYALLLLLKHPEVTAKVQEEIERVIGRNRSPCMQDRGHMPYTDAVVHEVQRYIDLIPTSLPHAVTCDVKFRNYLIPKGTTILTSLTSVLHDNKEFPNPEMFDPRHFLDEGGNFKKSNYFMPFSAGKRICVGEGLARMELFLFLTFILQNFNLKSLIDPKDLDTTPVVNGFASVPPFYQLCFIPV
The target of a further experiment is Cytochrome P450 2D6 (Homo sapiens, UniProt P10635).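 Further: CYP2D6 member of a cytochrome P450 panel assay.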
Cytochrome P450 2D6, sequence (P10635 whole entry): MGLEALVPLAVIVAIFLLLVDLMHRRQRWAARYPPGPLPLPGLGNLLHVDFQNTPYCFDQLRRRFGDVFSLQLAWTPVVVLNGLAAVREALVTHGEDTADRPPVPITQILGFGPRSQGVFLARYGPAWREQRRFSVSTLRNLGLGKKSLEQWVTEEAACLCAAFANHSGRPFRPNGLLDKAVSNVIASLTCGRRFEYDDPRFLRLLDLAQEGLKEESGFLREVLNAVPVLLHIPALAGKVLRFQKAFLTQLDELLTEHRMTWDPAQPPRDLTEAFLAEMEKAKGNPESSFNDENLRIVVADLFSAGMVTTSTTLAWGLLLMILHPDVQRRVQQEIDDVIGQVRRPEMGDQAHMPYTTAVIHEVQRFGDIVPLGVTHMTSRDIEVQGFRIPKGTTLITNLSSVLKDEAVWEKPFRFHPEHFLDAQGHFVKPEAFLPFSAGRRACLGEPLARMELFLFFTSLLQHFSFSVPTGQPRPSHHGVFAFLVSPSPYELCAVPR
The target in a further experiment is T5, Cytochrome P450 1A2 (Homo sapiens, UniProt P05177).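 Further: PubChem cytochrome P450 panel assay, CYP1A2 panel member.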
T5 sequence (P05177 whole entry): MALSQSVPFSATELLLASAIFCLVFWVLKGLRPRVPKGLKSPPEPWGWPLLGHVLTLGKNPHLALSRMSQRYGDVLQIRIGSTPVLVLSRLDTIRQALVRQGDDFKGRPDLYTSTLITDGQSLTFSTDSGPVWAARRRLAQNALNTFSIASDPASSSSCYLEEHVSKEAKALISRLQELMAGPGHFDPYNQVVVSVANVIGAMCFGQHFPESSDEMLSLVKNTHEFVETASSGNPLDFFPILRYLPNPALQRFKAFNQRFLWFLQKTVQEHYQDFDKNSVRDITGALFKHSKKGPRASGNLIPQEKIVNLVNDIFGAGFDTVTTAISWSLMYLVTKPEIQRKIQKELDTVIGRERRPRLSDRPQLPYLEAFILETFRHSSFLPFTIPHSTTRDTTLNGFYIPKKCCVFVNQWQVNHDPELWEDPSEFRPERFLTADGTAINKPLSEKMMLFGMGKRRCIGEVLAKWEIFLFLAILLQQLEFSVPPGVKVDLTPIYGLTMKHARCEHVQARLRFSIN

The subject of another experiment is HEK293. In words: inhibitors of LMP1-driven NF-kB reporter, dose response, cell-based, HEK293, luciferase, cherry-pick (AID 588343). To be noted: Homo sapiens. In kind it is functional.
The target in experiment [7] is T6, Carboxy-terminal domain RNA polymerase II polypeptide A small phosphatase 1 (Homo sapiens, UniProt Q9GZU7).
T6 sequence (Q9GZU7 whole entry): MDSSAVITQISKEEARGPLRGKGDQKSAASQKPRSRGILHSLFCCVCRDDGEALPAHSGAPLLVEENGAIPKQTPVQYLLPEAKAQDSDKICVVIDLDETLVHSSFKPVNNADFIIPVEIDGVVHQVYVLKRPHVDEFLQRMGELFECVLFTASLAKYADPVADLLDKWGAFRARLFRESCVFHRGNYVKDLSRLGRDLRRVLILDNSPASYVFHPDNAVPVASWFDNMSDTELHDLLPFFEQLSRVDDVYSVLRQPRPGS
In words: inhibitors of CTDSP1, concentration-response testing, biochemical assay, absorbance-based, actives from ultra-high-throughput screening (AID 540297). The class given is functional.

Experiment [8] in a line: THP-1 cell cytotoxicity, dose response, cytotoxicity control for Vif-APOBEC3G degradation inhibitor project, THP-1 cells (AID 1117359). In kind it is functional. The settings on record: Human immunodeficiency virus 1, THP-1.
For experiment [9], the target named is T7, Estrogen receptor beta (Homo sapiens, UniProt Q92731).
T7 sequence (Q92731 whole entry): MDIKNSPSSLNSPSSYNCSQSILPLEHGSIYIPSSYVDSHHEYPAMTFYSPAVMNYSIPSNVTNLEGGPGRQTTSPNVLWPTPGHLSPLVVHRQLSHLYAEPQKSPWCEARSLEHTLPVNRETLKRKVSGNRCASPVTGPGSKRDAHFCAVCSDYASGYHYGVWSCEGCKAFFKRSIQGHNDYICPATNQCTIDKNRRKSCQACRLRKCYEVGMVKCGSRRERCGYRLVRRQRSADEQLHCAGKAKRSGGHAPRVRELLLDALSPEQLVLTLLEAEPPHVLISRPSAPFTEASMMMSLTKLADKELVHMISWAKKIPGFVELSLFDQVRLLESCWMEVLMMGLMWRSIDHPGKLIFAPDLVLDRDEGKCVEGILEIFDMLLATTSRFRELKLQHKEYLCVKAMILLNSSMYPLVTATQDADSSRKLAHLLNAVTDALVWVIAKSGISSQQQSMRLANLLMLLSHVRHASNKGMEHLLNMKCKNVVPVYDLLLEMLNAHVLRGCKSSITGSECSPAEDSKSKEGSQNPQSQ
The target in experiment [10] is T7, Estrogen receptor beta. The experiment in a line: ERβ–SRC-3 coactivator interaction inhibitors, confirmation, orthogonal assay, biochemical, ELISA, streptavidin-HRP readout (AID 1060).

For the compound `O=C1CSc2ccc(C(=O)Nc3cccc(S(=O)(=O)Nc4ccc(Br)cc4)c3)cc2N1`, the concentration at half-maximal activity (AC50) is 3.08 µM (active) in experiment [1], 45.6 µM (active) in [2] and 8.81 µM (active) in experiment [3].
As for `C/C(=N\OC(=O)c1ccccc1F)c1nccs1`, the half-inhibitory concentration (IC50) is 71.1 µM (active) on Caspase-3, 2.97 µM (active) in experiment [4], 17.2 µM (active) in experiment [5] and 62.9 µM (active) in experiment [6]. The AC50 at Cytochrome P450 2C19 is 35.5 µM (inconclusive); on Cytochrome P450 2D6, 28.2 µM (inconclusive); at Cytochrome P450 1A2 it was 31.6 µM (inconclusive).
For the compound `Cc1cc(C(=O)COC(=O)c2cccc(NS(C)(=O)=O)c2)c(C)n1CC1CCCO1` (stereo not drawn), the AC50 with HEK293 is 3.15 µM (active).
Regarding `CC1C=CC=CC=CC=CC=CC=CC=CC(OC2OC(C)C(O)C(N)C2O)CC2OC(O)(CC(O)CC(O)C(O)CCC(O)CC(O)CC(=O)OC(C)C(C)C1O)CC(O)C2C(=O)O` (stereo not drawn), the IC50 in experiment [7] was 1.17 µM (active). The 50% cytotoxic concentration (CC50) in experiment [8] is 3.14 µM (active).
For `Cc1ccnc(NC(=O)c2ccc(Cl)c(S(=O)(=O)N3CCCC3)c2)c1`, the CC50 in experiment [8] was > 40 µM (active).
Take `Cc1nc2ccc(NS(=O)(=O)c3ccc4c(c3)OCCO4)cc2s1`: the AC50 in [1] is 0.635 µM (active); in [2] it was 4.15 µM (active); in [3], > 70 µM (inactive).
On to `CCOc1ccc2nc(NC(=O)CCC(=O)c3cccs3)sc2c1`, for which the 50% inhibitory concentration (IC50) was 9.84 µM (active) on Estrogen receptor beta [9] and 0.0637 µM (not active) at Estrogen receptor beta [10].
Taken in the same sequence, the figures for `CC(=O)Nc1nonc1-c1nc2ccccc2n1N(C(C)=O)C(C)=O` were 2.75 µM (active) and > 109 µM (not active).
With `COc1ccc(S(=O)(=O)N2CCN(C(=O)c3cc(-c4ccccc4OC)[nH]n3)CC2)cc1`, the cytotoxic concentration (CC50) in [8] was > 40 µM (active).
Regarding `Cc1ccccc1/C=C\c1nc(O)c2ccccc2n1`, the half-maximal inhibitory concentration (IC50) is 3.24 µM (active) at Caspase-3, 2.16 µM (active) in experiment [4], 2.74 µM (active) in experiment [5] and 2.64 µM (active) in experiment [6].
For `CCOc1ccccc1-n1nnnc1SCC(=O)NC(=O)NCc1ccco1`, the figures for the IC50 at Estrogen receptor beta [9] and against Estrogen receptor beta [10] were 7.76 µM (active) and 9.38 µM (not active), respectively.
